Test results from paper PMC10653918, “Antibiotic that inhibits trans-translation blocks binding of EF-Tu to tmRNA but not to tRNA” (mBio, 2023).
≈ marks a conversion by molar mass, not a printed value. Like-named read-outs stand apart in the source and are kept apart here.

What was measured:
[1] = molecular target: E. coli EF-Tu•GTP (Escherichia coli, UniProt P0CE47); assay: biochemical; assay type: binding
[2] = molecular target: EF-Tu•GDP (Escherichia coli, UniProt P0CE47); assay: MST binding assay, EF-Tu•GDP; design: species or system E. coli
[3] = system: E. coli ∆tolC; assay: microbe, parasite or virus in culture; assay type: cell-based; settings: Escherichia coli
[4] = system: B. anthracis vegetative cells, germinants, and spores; settings: in vitro and after ex vivo infection of macrophages; cited from earlier work
[5] = system: Francisella tularensis; settings: compared with tetracycline; cited from earlier work
[6] = molecular target: EF-Tu•GTP H319A (Escherichia coli, UniProt P0CE47, H320A); assay: MST binding assay, EF-Tu H319A mutant
[7] = molecular target: EF-Tu•GTP E378A (Escherichia coli, UniProt P0CE47, E379A); assay: MST binding assay, EF-Tu E378A mutant
[8] = molecular target: EF-Tu•GTP R318K (Escherichia coli, UniProt P0CE47, R319K); assay: MST binding assay, EF-Tu R318K mutant
[9] = molecular target: EF-Tu•GTP R318N (Escherichia coli, UniProt P0CE47, R319N); assay: MST binding assay, EF-Tu R318N mutant
[10] = system: translation; assay: In vitro translation assay (DHFR with stop codon, no tmRNA-SmpB); settings: DMSO control 100 ± 1
[11] = system: trans-translation; assay: In vitro trans-translation assay (tagging of DHFR from nonstop template with tmRNA-SmpB); settings: 10 µM compound; percentage of total DHFR in tagged DHFR band; DMSO control 90 ± 7
[12] = system: EF-Tu•GTP (Escherichia coli MG1655 (pCA24N tufA, ASKA clone JW3301)); assay: filter binding; settings: 10 mM Mg2+, 44 mM KH2PO4, 6 mM K2HPO4, 10 mM MgCl2, 50 µg/mL BSA, pH 5.5 (RNA-binding mix; 34 µL mix + 16 µL EF-Tu), 0.1 nM RNA, 15 s at room temperature
[13] = no KKL-55, 3'-alanylated with AlaRS

O=C(Nc1nnc(-c2ccc(F)cc2)o1)c1ccc(Cl)cc1 [KKL-35, reference compound]
binding to EF-Tu [1]: No binding

CCCn1nnnc1NC(=O)c1cccc(Cl)c1 [KKL-55]
Kd [1]: 2 µM | Kd [2]: 1.6 ± 0.02 µM | MIC [3]: 2.3 µM (≈ 0.611 µg/mL) | bactericidal activity [4]: bactericidal | MIC [5]: comparable to that of tetracycline | Kd [6]: 2.4 ± 0.1 µM | Kd ([6]; MST, H319A EF-Tu•GTP): little impact on binding | Kd [7]: 2.6 ± 0.2 µM | Kd ([7]; MST, E378A EF-Tu•GTP): little effect on binding affinity | Kd [8]: 2.6 µM | Kd [9]: > 20 µM | translation efficiency ± SD ([10]; 100 µM compound): 102 ± 2% | tagging efficiency ± SD [11]: 30 ± 2%

O=C(CCCCC1SCC2NC(=O)NC21)NCCn1nnnc1NC(=O)c1cccc(Cl)c1 (centres unmarked) [KKL-201]
translation efficiency ± SD ([10]; 10 µM compound): 99 ± 6% | tagging efficiency ± SD [11]: 42 ± 2%

O=C(N[C@H](CO)[C@H](O)c1ccc([N+](=O)[O-])cc1)C(Cl)Cl [chlor, chloramphenicol, reference compound]
translation efficiency ± SD ([10]; 100 µM compound): 5 ± 3%

Ala-tRNAAla
Kd [12, 13]: 0.28 µM

Ala-tmRNA
Kd ([12]; 25 µM KKL-55 (substantially reduced, no saturation), 3'-alanylated with AlaRS): > 10 µM | Kd [12, 13]: 0.75 µM
